The values that follow come from PMC5933747 (PLoS ONE, 2018).

What all share (format): cell-based
One data set has as its target human NaV1.4 (Homo sapiens, UniProt P35499). Briefly: IonWorks Quattro (IWQ) electrophysiology, human NaV1.4. (In general: Patch clamp records ionic current or voltage across a cell membrane.)
Another data set deals with human NaV1.7 (Homo sapiens, UniProt Q15858). The experiment in a line: IonWorks Quattro (IWQ) electrophysiology, human NaV1.7.
The next data set deals with human NaV1.5 (Homo sapiens, UniProt Q14524). Briefly: IonWorks Quattro (IWQ) electrophysiology, human NaV1.5.
Where [1] appears, read: read-out: Glu mutant IWQ IC50 NaV1.4.
The mark [2] stands for this setting: read-out: Glu mutant IWQ IC50 NaV1.7.
The mark [3] stands for this setting: read-out: Glu mutant IWQ IC50 NaV1.5.
Where [4] appears, read: read-out: Ala mutant IWQ IC50 NaV1.4.
[5] abbreviates: read-out: Ala mutant IWQ IC50 NaV1.7.
Where [6] appears, read: read-out: Ala mutant IWQ IC50 NaV1.5.

Read-outs that look alike come from different tables or passages of the source.

human NaV1.7, sequence (Q15858 whole entry): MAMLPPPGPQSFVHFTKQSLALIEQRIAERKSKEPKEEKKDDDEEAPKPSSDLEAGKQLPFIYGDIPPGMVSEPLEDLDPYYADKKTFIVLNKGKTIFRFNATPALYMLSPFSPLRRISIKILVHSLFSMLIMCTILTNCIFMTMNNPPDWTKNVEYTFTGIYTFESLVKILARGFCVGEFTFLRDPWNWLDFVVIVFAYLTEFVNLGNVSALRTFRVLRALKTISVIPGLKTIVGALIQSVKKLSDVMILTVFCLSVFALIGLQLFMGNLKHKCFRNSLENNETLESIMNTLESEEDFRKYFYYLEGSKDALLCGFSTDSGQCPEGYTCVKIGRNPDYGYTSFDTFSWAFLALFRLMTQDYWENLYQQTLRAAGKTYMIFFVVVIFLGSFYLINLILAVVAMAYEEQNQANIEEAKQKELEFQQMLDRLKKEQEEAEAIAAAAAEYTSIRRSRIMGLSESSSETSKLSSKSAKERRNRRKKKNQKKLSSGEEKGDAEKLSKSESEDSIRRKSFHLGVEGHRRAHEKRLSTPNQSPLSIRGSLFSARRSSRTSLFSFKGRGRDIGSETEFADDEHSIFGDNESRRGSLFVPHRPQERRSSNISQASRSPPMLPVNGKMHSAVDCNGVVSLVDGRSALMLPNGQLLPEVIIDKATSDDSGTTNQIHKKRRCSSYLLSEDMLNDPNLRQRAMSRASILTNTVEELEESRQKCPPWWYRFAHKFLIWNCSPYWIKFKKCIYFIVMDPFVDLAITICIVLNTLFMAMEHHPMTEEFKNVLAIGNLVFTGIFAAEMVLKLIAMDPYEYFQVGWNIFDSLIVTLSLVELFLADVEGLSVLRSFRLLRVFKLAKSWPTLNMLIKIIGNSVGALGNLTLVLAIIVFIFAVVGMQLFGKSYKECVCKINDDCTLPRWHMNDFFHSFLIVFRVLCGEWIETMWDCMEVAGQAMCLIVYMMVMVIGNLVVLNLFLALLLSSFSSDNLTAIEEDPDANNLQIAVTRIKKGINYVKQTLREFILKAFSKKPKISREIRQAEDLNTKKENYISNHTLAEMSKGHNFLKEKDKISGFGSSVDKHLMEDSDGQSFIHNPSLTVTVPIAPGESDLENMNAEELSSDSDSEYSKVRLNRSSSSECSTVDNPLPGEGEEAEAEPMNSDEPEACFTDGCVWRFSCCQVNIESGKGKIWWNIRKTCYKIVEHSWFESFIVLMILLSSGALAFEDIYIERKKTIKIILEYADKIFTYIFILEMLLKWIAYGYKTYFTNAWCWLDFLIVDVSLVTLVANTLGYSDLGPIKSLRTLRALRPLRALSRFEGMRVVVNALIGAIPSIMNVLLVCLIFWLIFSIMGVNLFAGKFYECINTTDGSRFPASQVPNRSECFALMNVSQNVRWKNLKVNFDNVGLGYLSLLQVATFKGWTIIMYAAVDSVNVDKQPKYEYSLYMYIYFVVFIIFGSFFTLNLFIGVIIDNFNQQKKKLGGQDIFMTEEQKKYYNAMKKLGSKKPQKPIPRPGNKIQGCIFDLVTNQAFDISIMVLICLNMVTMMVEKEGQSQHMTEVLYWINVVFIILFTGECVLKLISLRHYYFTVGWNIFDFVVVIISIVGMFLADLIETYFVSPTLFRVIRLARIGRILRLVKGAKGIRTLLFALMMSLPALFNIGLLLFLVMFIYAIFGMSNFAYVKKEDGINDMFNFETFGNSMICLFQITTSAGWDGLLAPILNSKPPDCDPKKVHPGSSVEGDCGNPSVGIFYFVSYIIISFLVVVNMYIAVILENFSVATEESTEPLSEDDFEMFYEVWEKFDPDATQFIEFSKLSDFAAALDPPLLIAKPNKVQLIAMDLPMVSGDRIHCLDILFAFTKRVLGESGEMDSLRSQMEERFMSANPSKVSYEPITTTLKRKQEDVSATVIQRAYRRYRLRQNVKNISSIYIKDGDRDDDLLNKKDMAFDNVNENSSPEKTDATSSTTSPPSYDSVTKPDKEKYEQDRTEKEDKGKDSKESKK
human NaV1.5, sequence (Q14524 whole entry): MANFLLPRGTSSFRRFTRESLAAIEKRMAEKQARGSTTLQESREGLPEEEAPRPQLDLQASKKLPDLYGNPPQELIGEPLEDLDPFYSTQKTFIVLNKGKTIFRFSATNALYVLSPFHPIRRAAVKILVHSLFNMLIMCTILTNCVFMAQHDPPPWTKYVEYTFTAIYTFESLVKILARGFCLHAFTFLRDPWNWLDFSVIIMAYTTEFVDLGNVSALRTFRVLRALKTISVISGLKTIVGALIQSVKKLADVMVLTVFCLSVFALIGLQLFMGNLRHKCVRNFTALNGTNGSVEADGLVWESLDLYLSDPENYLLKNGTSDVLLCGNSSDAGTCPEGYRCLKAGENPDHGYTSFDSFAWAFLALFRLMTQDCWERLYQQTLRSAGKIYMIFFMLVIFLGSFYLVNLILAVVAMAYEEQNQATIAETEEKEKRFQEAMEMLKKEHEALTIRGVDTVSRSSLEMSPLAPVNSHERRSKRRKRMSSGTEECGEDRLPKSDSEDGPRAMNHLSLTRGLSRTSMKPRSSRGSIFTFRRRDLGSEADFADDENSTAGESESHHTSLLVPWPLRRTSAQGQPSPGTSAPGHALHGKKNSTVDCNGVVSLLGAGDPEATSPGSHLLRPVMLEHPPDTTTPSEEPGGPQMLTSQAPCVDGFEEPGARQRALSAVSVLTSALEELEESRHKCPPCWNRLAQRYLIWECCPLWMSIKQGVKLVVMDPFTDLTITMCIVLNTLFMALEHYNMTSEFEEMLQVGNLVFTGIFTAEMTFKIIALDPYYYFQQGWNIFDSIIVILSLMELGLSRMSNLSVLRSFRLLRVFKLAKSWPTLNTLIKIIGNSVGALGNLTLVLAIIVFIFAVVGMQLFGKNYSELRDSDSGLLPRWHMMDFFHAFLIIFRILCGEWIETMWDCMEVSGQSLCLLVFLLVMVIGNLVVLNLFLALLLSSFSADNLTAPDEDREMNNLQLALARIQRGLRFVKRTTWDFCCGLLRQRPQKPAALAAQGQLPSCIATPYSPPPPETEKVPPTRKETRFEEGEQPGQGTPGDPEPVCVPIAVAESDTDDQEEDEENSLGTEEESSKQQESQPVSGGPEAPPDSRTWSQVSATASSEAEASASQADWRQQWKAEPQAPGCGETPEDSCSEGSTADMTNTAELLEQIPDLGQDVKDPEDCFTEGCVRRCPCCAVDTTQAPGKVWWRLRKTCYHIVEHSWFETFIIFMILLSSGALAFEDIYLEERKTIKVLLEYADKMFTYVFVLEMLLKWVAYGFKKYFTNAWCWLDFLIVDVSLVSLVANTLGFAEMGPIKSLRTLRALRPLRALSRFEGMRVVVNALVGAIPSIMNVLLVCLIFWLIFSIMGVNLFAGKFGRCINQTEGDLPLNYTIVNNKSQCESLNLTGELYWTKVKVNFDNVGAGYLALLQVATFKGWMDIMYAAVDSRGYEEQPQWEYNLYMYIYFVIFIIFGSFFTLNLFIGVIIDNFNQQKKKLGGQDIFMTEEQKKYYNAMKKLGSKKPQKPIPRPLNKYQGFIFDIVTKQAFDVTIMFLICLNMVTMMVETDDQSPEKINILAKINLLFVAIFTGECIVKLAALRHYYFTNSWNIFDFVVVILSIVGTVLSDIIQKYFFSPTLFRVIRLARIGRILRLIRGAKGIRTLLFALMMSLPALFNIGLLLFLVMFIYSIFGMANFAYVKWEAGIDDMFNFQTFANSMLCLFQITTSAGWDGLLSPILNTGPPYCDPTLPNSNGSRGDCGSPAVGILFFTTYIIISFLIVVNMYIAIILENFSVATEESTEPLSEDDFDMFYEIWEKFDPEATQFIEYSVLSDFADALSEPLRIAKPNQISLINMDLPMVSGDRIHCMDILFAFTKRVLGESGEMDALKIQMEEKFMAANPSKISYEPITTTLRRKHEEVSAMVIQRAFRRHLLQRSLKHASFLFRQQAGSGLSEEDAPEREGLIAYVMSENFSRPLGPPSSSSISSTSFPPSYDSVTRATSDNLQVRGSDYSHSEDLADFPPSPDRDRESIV

As a reminder, the IC50 is the concentration that gives 50% inhibition. `CC[C@H](C)[C@H](NC(=O)[C@@H](NC(=O)[C@H](CCCCN)NC(=O)[C@H](CCCNC(=N)N)NC(=O)[C@@H]1CSSC[C@@H]2NC(=O)[C@H](C)NC(=O)[C@H](CCCNC(=N)N)NC(=O)[C@H](CCCCN)NC(=O)[C@H](CO)NC(=O)[C@H](CC(=O)O)NC(=O)[C@@H]3CSSC[C@H](NC(=O)[C@H](CCCNC(=N)N)NC(=O)[C@H](CC(C)C)NC(=O)CNC(=O)[C@H](CCC(=O)O)NC(=O)[C@H](CSSC[C@H](NC(=O)[C@@H](N)Cc4ccc(O)cc4)C(=O)N[C@@H](CCC(=O)O)C(=O)N[C@@H](CCCCN)C(=O)N[C@@H](Cc4c[nH]c5ccccc45)C(=O)N[C@@H](CCSC)C(=O)N[C@@H](Cc4c[nH]c5ccccc45)C(=O)N[C@@H]([C@@H](C)O)C(=O)N3)NC2=O)C(=O)N[C@@H](CCCCN)C(=O)N[C@@H](CC(C)C)C(=O)N[C@@H](Cc2c[nH]c3ccccc23)C(=O)N1)[C@@H](C)CC)C(N)=O` [Q3 Glu mutant]: the results for the IC50 at human NaV1.4 (setting [1]), on human NaV1.7 (setting [2]) and on human NaV1.5 (setting [3]) were 1.83 µM, 333 nM and greater than 10 µM, respectively.

As for `CC[C@H](C)[C@H](NC(=O)[C@@H](NC(=O)[C@H](CCCCN)NC(=O)[C@H](CCCNC(=N)N)NC(=O)[C@@H]1CSSC[C@@H]2NC(=O)[C@H](C)NC(=O)[C@H](CCC(=O)O)NC(=O)[C@H](CCCCN)NC(=O)[C@H](CO)NC(=O)[C@H](CC(=O)O)NC(=O)[C@@H]3CSSC[C@H](NC(=O)[C@H](CCCNC(=N)N)NC(=O)[C@H](CC(C)C)NC(=O)CNC(=O)[C@H](CCC(=O)O)NC(=O)[C@H](CSSC[C@H](NC(=O)[C@@H](N)Cc4ccc(O)cc4)C(=O)N[C@@H](CCC(N)=O)C(=O)N[C@@H](CCCCN)C(=O)N[C@@H](Cc4c[nH]c5ccccc45)C(=O)N[C@@H](CCSC)C(=O)N[C@@H](Cc4c[nH]c5ccccc45)C(=O)N[C@@H]([C@@H](C)O)C(=O)N3)NC2=O)C(=O)N[C@@H](CCCCN)C(=O)N[C@@H](CC(C)C)C(=O)N[C@@H](Cc2c[nH]c3ccccc23)C(=O)N1)[C@@H](C)CC)C(N)=O` [R13 Glu mutant], the IC50 on human NaV1.4 (setting [1]) was greater than 10 µM; at human NaV1.7 (setting [2]), 4570 nM; at human NaV1.5 (setting [3]) it was greater than 10 µM.

Consider `CC[C@H](C)[C@H](NC(=O)[C@@H](NC(=O)[C@H](CCCCN)NC(=O)[C@H](CCCNC(=N)N)NC(=O)[C@@H]1CSSC[C@@H]2NC(=O)[C@H](C)NC(=O)[C@H](CCCNC(=N)N)NC(=O)[C@H](CCCCN)NC(=O)[C@H](CO)NC(=O)[C@H](CC(=O)O)NC(=O)[C@@H]3CSSC[C@H](NC(=O)[C@H](CCC(=O)O)NC(=O)[C@H](CC(C)C)NC(=O)CNC(=O)[C@H](CCC(=O)O)NC(=O)[C@H](CSSC[C@H](NC(=O)[C@@H](N)Cc4ccc(O)cc4)C(=O)N[C@@H](CCC(N)=O)C(=O)N[C@@H](CCCCN)C(=O)N[C@@H](Cc4c[nH]c5ccccc45)C(=O)N[C@@H](CCSC)C(=O)N[C@@H](Cc4c[nH]c5ccccc45)C(=O)N[C@@H]([C@@H](C)O)C(=O)N3)NC2=O)C(=O)N[C@@H](CCCCN)C(=O)N[C@@H](CC(C)C)C(=O)N[C@@H](Cc2c[nH]c3ccccc23)C(=O)N1)[C@@H](C)CC)C(N)=O` [R20 Glu mutant], for which the IC50 on human NaV1.4 (setting [1]) is 1.82 µM; at human NaV1.7 (setting [2]) it was 217 nM; at human NaV1.5 (human, read-out: Glu mutant IWQ IC50 NaV1.5) it was greater than 5 µM.

For the compound `CC[C@H](C)[C@H](NC(=O)[C@@H](NC(=O)[C@H](CCCCN)NC(=O)[C@H](C)NC(=O)[C@@H]1CSSC[C@@H]2NC(=O)[C@H](C)NC(=O)[C@H](CCCNC(=N)N)NC(=O)[C@H](CCCCN)NC(=O)[C@H](CO)NC(=O)[C@H](CC(=O)O)NC(=O)[C@@H]3CSSC[C@H](NC(=O)[C@H](CCCNC(=N)N)NC(=O)[C@H](CC(C)C)NC(=O)CNC(=O)[C@H](CCC(=O)O)NC(=O)[C@H](CSSC[C@H](NC(=O)[C@@H](N)Cc4ccc(O)cc4)C(=O)N[C@@H](CCC(N)=O)C(=O)N[C@@H](CCCCN)C(=O)N[C@@H](Cc4c[nH]c5ccccc45)C(=O)N[C@@H](CCSC)C(=O)N[C@@H](Cc4c[nH]c5ccccc45)C(=O)N[C@@H]([C@@H](C)O)C(=O)N3)NC2=O)C(=O)N[C@@H](CCCCN)C(=O)N[C@@H](CC(C)C)C(=O)N[C@@H](Cc2c[nH]c3ccccc23)C(=O)N1)[C@@H](C)CC)C(N)=O` [R26 Ala mutant], the IC50 on human NaV1.4 (setting [4]) is greater than 10 µM; on human NaV1.7 (setting [5]), 2420 nM; at human NaV1.5 (setting [6]), greater than 10 µM.

On to `CC[C@H](C)[C@H](NC(=O)[C@@H](NC(=O)[C@H](CCCCN)NC(=O)[C@H](CCC(=O)O)NC(=O)[C@@H]1CSSC[C@@H]2NC(=O)[C@H](C)NC(=O)[C@H](CCCNC(=N)N)NC(=O)[C@H](CCCCN)NC(=O)[C@H](CO)NC(=O)[C@H](CC(=O)O)NC(=O)[C@@H]3CSSC[C@H](NC(=O)[C@H](CCCNC(=N)N)NC(=O)[C@H](CC(C)C)NC(=O)CNC(=O)[C@H](CCC(=O)O)NC(=O)[C@H](CSSC[C@H](NC(=O)[C@@H](N)Cc4ccc(O)cc4)C(=O)N[C@@H](CCC(N)=O)C(=O)N[C@@H](CCCCN)C(=O)N[C@@H](Cc4c[nH]c5ccccc45)C(=O)N[C@@H](CCSC)C(=O)N[C@@H](Cc4c[nH]c5ccccc45)C(=O)N[C@@H]([C@@H](C)O)C(=O)N3)NC2=O)C(=O)N[C@@H](CCCCN)C(=O)N[C@@H](CC(C)C)C(=O)N[C@@H](Cc2c[nH]c3ccccc23)C(=O)N1)[C@@H](C)CC)C(N)=O` [R26 Glu mutant], for which the IC50 on human NaV1.4 (setting [1]) is greater than 10 µM; on human NaV1.7 (setting [2]), greater than 10000 nM; on human NaV1.5 (setting [3]) it was greater than 10 µM.

As for `CC[C@H](C)[C@H](NC(=O)[C@@H](NC(=O)[C@H](CCCCN)NC(=O)[C@H](CCCNC(=N)N)NC(=O)[C@@H]1CSSC[C@@H]2NC(=O)[C@H](C)NC(=O)[C@H](CCCNC(=N)N)NC(=O)[C@H](CCCCN)NC(=O)[C@H](CO)NC(=O)[C@H](CC(=O)O)NC(=O)[C@@H]3CSSC[C@H](NC(=O)[C@H](CCCNC(=N)N)NC(=O)[C@H](CC(C)C)NC(=O)CNC(=O)[C@H](CCC(=O)O)NC(=O)[C@H](CSSC[C@H](NC(=O)[C@@H](N)Cc4ccc(O)cc4)C(=O)N[C@@H](CCC(N)=O)C(=O)N[C@@H](CCCCN)C(=O)N[C@@H](Cc4c[nH]c5ccccc45)C(=O)N[C@@H](CCSC)C(=O)N[C@@H](Cc4c[nH]c5ccccc45)C(=O)N[C@@H](CCC(=O)O)C(=O)N3)NC2=O)C(=O)N[C@@H](CCCCN)C(=O)N[C@@H](CC(C)C)C(=O)N[C@@H](Cc2c[nH]c3ccccc23)C(=O)N1)[C@@H](C)CC)C(N)=O` [T8 Glu mutant], the IC50 at human NaV1.4 (setting [1]) was greater than 10 µM; at human NaV1.7 (setting [2]), 3860 nM; at human NaV1.5 (setting [3]), greater than 10 µM.

In the case of `CC[C@H](C)[C@H](NC(=O)[C@@H](NC(=O)[C@H](CCCCN)NC(=O)[C@H](CCCNC(=N)N)NC(=O)[C@@H]1CSSC[C@@H]2NC(=O)[C@H](C)NC(=O)[C@H](CCCNC(=N)N)NC(=O)[C@H](CCCCN)NC(=O)[C@H](CO)NC(=O)[C@H](CC(=O)O)NC(=O)[C@@H]3CSSC[C@H](NC(=O)[C@H](CCCNC(=N)N)NC(=O)[C@H](CC(C)C)NC(=O)CNC(=O)[C@H](CCC(=O)O)NC(=O)[C@H](CSSC[C@H](NC(=O)[C@@H](N)Cc4ccc(O)cc4)C(=O)N[C@@H](CCC(N)=O)C(=O)N[C@@H](CCCCN)C(=O)N[C@@H](C)C(=O)N[C@@H](CCSC)C(=O)N[C@@H](Cc4c[nH]c5ccccc45)C(=O)N[C@@H]([C@@H](C)O)C(=O)N3)NC2=O)C(=O)N[C@@H](CCCCN)C(=O)N[C@@H](CC(C)C)C(=O)N[C@@H](Cc2c[nH]c3ccccc23)C(=O)N1)[C@@H](C)CC)C(N)=O` [W5 Ala mutant], the IC50 at human NaV1.4 (setting [4]) was greater than 10 µM; on human NaV1.7 (setting [5]) it was 1550 nM; at human NaV1.5 (setting [6]) it was greater than 10 µM.
